Laboratory results taken from patent publication US9689040B2, “Selective inhibitors of tumor-initiating cells” (Children's Medical Center Corporation, priority 2011, dated 2017).

B1: NM_174931 (nucleic acid, listed as Homo sapiens)
DNA: AATAGAGTCTGCACTAGGAAACTGGTGGGAGCCGAGGTCCGGAAGTCCGACGCTGGTCGGTGGGCGCATGCGCAGCGCGCGCTCTACGGCGCTGAACCGGGGCGAGCAGAGAGCTGTCAGATACTATAGCCATATGAAGTTGAACATGGCAGAAGAAGAGGACTATATGTCTGATTCCTTCATTAATGTCCAAGAAGATATCAGACCAGGATTGCCAATGCTAAGGCAAATCCGAGAAGCCCGTCGAAAAGAAGAAAAGCAACAGGAAGCCAATTTGAAAAACAGGCAGAAGAGTTTAAAAGAAGAAGAACAAGAAAGACGTGACATTGGGTTGAAGAATGCACTAGGCTGTGAAAACAAAGGGTTTGCCTTGCTCCAAAAGATGGGCTATAAAAGTGGTCAGGCACTTGGCAAGAGTGGGGGTGGTATTGTTGAACCAATTCCTCTCAATATCAAAACAGGGAAAAGTGGCATTGGTCATGAGGCATCATTAAAACGGAAAGCAGAGGAAAAATTGGAAAGCTACAGAAAAAAGATTCACATGAAAAACCAAGCTGAAGAAAAAGCTGCAGAACAGTTTCGAATGCGACTTAAAAATAAGCAAGATGAAATGAAGCTAGAAGGAGATCTCAGAAGAAGCCAGCGAGCCTGTCAACAACTGGATGTCCAGAAAAATATTCAGGTTCCCAGGGAAGCATGGTACTGGTTGAGGCTTGAAGAGGAGACTGAAGAAGATGAAGAAGAAAAAGAACAGGATGAAGATGAATATAAGAGTGAAGATTTAAGCGTACTGGAAAAATTACAAATATTGACTAGTTATTTAAGAGAAGAACATCTATATTGTATTTGGTGTGGAACAGCCTATGAAGATAAAGAAGACCTATCTTCAAATTGTCCAGGACCAACTTCTGCAGATCATGACTAAGATTATTCCCAATAAAGTGGAAACTTGAAAAATGTTATTACTTCCTAGGGATAGACAATTTAGCAGTTGGAAATCTCAAATTTTTTATGCCAGTAAAGAAAGGGGGACTTTATATAATGTTTTGTTCTTTTTGTACTTTAGAATATGAATGTTCATTGACTTGAAAAAAATAATGCAATGGCATTTCAGAACACAAGTATCACAGAGATGGACAGTTACAATTTATTGCTATATTGTGATACGTGAGGGGTTTAAGGACACCAACAGGTAACTTCTTATTCCCCTCTTCACTTTGGAACAAATTGAGAAATAAGAAATGGGAGTCAGAGGAA

Tests used:
BPLER cells [1] = assay: Secondary (cherry-pick) screen with the 4 individual siRNAs of each pool; details: for Cherry_Score: secondary cherry-pick screen, 4 individual siRNAs of each pool
HMLER cells = assay: Genome-wide siRNA lethality screen (primary screen), CellTiterGlo viability; type: cell-based, human; details: for MAD_HMLER / Fold_HMLER: primary screen, HMLER cells; for MAD_HMLER: MAD score; for MAD HMLER: MAD score of viability in HMLER cells; for Fold HMLER: fold viability in HMLER cells
BPLER cells [2] = assay: as above; type: cell-based, human; details: for MAD BPLER / Fold BPLER: siRNA pool against the gene; for MAD BPLER: MAD score of viability in BPLER cells; for Fold BPLER: fold viability in BPLER cells; for Ratio: R, BPLER versus HMLER, primary screen
[3] = secondary screen with the 4 individual siRNAs of each pool
[4] = siRNA pool against the gene, fold viability
[5] = ratio of Fold_BPLER to Fold_HMLER
[6] = ratio of fold viability BPLER/HMLER
[7] = validation screen with individual siRNAs of each pool

Row | Molecule | Cherry_Score (BPLER cells [1]) | Cherry Score (BPLER cells [1]; [3]) | MAD_HMLER (HMLER cells; siRNA pool against the gene) | Fold_HMLER (HMLER cells; [4]) | MAD HMLER (HMLER cells; siRNA pool against the gene) | Fold HMLER (HMLER cells; siRNA pool against the gene) | Ratio BPLER/HMLER (BPLER cells [2]; [5]) | Ratio BPLER/HMLER (BPLER cells [2]; [6]) | MAD BPLER (BPLER cells [2]) | Fold BPLER (BPLER cells [2]) | Cherry Score (BPLER cells [1]; [7]) | Fold_HMLER (HMLER cells; siRNA pool) | Ratio (BPLER cells [2])
1 | PHF1 | 1 | 1 | −0.72 | 0.86 | −0.72 | 0.86 | 0.71 | 0.71 | −3.21 | 0.606 | – | – | –
2 | POLA1 | 3 | 3 | −0.17 | 0.97 | −0.17 | 0.97 | 0.74 | 0.74 | −2.01 | 0.724 | – | – | –
3 | PRC1 | 1 | 1 | −2.40 | 0.60 | −2.40 | 0.60 | 0.68 | 0.68 | −3.08 | 0.409 | – | – | –
4 | SCD | 2 | 2 | −1.58 | 0.75 | −1.58 | 0.75 | 0.74 | 0.74 | −3.24 | 0.555 | – | – | –
5 | SETX | 1 | 1 | −0.72 | 0.89 | −0.72 | 0.89 | 0.70 | 0.70 | −2.40 | 0.617 | – | – | –
6 | SLC24A3 | 1 | 1 | −0.75 | 0.88 | −0.75 | 0.88 | 0.72 | 0.72 | −2.23 | 0.637 | – | – | –
7 | SLC47A1 | 2 | 2 | −0.71 | 0.90 | −0.71 | 0.90 | 0.68 | 0.68 | −1.62 | 0.613 | – | – | –
8 | STIM2 | 2 | 2 | −0.99 | 0.83 | −0.99 | 0.83 | 0.72 | 0.72 | −2.39 | 0.597 | – | – | –
9 | TANC2 | 1 | 1 | 0.40 | 1.05 | 0.40 | 1.05 | 0.67 | 0.67 | −1.86 | 0.709 | – | – | –
10 | TBC1D24 | 2 | 2 | −0.32 | 0.95 | −0.32 | 0.95 | 0.71 | 0.71 | −1.97 | 0.680 | – | – | –
11 | TNPO1 | 1 | 1 | −0.59 | 0.90 | −0.59 | 0.90 | 0.70 | 0.70 | −1.99 | 0.630 | – | – | –
12 | TSG101 | 3 | 3 | 0.23 | 1.04 | 0.23 | 1.04 | 0.66 | 0.66 | −2.45 | 0.684 | – | – | –
13 | TUT1 | 2 | 2 | −0.07 | 0.99 | −0.07 | 0.99 | 0.69 | 0.69 | −1.91 | 0.680 | – | – | –
14 | USP39 | 2 | 2 | −0.04 | 0.99 | −0.04 | 0.99 | 0.70 | 0.70 | −2.13 | 0.695 | – | – | –
15 | XM_058073 | – | – | – | – | – | – | – | – | – | – | 3 | 0.75 | 0.73
16 | B1 | – | – | – | – | – | – | – | – | – | – | 1 | 0.65 | 0.72
